Laboratory results published in patent publication US12636379B2, “Microbubble-chemotherapeutic agent complex for sonodynamic therapy” (UNIVERSITY OF ULSTER, priority 2015, dated 2026).

Columns and labels:
MIA PaCa-2 cells = assay: Combined antimetabolite/sonodynamic therapy with free agents, MTT assay; conditions: 3 μM RB and/or 50 μM 5FU, 3 h; US 30 sec, 1 MHz; MTT 24 h; n=6
Description: The cells were incubated with either 3 μM RB and 50 μM 5FU (or both) for 3 h as these represent sub-lethal doses and enabled synergy to be identified if evident. Ultrasound exposure was 30 sec, 3 W/cm^2, 1 MHz, 50% duty cycle; pulse repetition frequency of […]. Cell viability was determined 24 h following treatment using a MTT assay.
Human primary pancreatic adenocarcinoma cell lines MIA PaCa-2 were maintained in Dulbecco's Modified Eagle's Medium and supplemented with 10% (v/v) foetal bovine serum in a humidified 5% CO2 atmosphere at 37° C. The cells were plated into the wells of a 96-well plate at a concentration of 4×10^3 cells per well and incubated for 21 h at 37° C. in a humidified 5% CO2 atmosphere. The medium was then removed and wells treated with either Rose Bengal, ([…]), 5-Fluorouracil (50 μM) or a combination of both RB (3 μM) and 5-FU (50 μM) for 3 h. The drug solutions were then removed, fresh media added and selected wells treated with ultrasound delivered using a Sonidel SP100 sonoporator (30 sec, frequency=1 MHz, ultrasound power density=3.0 Wcm^−2, duty cycle=50% with pulse repetition frequency=100 Hz). The cells were then incubated for 24 h before cell viability was determined using a MTT assay.

BxPc-3 tumours = assay: In vivo cytotoxicity: intratumoural treatment of ectopic xenograft tumours, tumour volume; set-up: species or system mice; conditions: 9 days after single intratumoural treatment; 440 μM gemcitabine or 5-FU alone; mix (90.8 μM RB, 440 μM 5FU) +US
Source text: FIG. 8 is a plot of (a) % change in tumour volume and (b) average body weight for mice treated with (i) no treatment (open diamonds) (ii) ultrasound only (filled diamonds) (iii) gemcitabine (open triangles) (iv) O2MB-RB/O2MB-5FU mix-US (open circles) (v) O2MB-RB+US (filled squares) (vi) O2MB-RB/O2MB-5FU mix+US (filled circles). Not shown for ease of illustration are treatments with 5-FU alone, O2MB-RB-US, O2MB-5FU+US, O2MB-5FU-US. The RB, 5-FU and gemcitabine concentrations were kept constant in each case at 0.184 mg/kg (90.8 μM), 0.115 mg/kg (440 μM) and 0.264 mg/kg (440 μM) respectively. Ultrasound treatment was delivered for 30 sec at frequency of 1 MHz, an ultrasound power density of 3.0 Wcm^−2 and a duty cycle of 50%, pulse frequency=100 Hz. […]
BxPc-3 cells were maintained in RPMI-1640 medium supplemented with 10% foetal calf serum as described above. […] Once the tumours had reached an average volume of 218 mm^3, calculated from the geometric mean diameter using the equation tumour volume=4πR^3/3, animals were randomly distributed into 10 groups (n=4). […] After treatment, animals were allowed to recover from anaesthesia and tumour volume and body weight were recorded daily for nine days. The % increase in tumour volume was calculated employing the pre-treatment measurements for each group.

ectopic BxPC-3 tumours = assay: Systemic (IP) gemcitabine therapy of ectopic tumours, tumour volume; assay type: in vivo, mice; conditions: 120 mg/kg IP on days 0, 3 and 8
Description: FIG. 9 is a plot of % change in tumour volume for mice treated with IP gemcitabine (120 mg/kg on days 0, 3 and 8) (filled squares) or vehicle only (filled diamonds). Error bars represent+the standard error where n=4.
In order to compare the effectiveness of the combined SDT/5-FU therapy against systemic gemcitabine therapy, we treated mice bearing ectopic BxPC-3 tumours with gemcitabine (120 mg/kg) administered by intraperitoneal (IP) injection on days 0, 3 and 8. Tumour volume was measured daily as before and compared to untreated animal controls.

[1] = Fluorescence emission spectra compared with Cardio Green; assay type: physicochemical
Source text: The new compounds clearly show similar absorption profiles to Cardio Green. […] This is attributed to increased ISC due to the additional iodine atoms.

[2] = Singlet oxygen production (SOSG intensity) on 780 nm excitation; assay type: physicochemical; conditions: excited at 780 nm
Source text: Increased SOSG intensity is indicative of singlet oxygen production.

Mia Paca cells = assay: In vitro cytotoxicity with 780 nm irradiation; assay type: cell-based; conditions: exposed to 780 nm irradiation
BxPC-3 cells = assay: In vitro cytotoxicity with 780 nm irradiation; assay type: cell-based; conditions: exposed to 780 nm irradiation
[3] = tested on: HeLa cervical cancer cell line; assay: In vitro cytotoxicity with 780 nm excitation; assay type: cell-based; conditions: excited at 780 nm
[4] = tested on: ectopic BxPC-3 pancreatic tumors; assay: Tumour localisation after tail vein administration; assay type: in vivo, mice; conditions: 18 hours following tail vein administration
Bcl2 = conditions: MIA PaCa-2 pancreatic cancer xenograft model; cited from earlier work

O=C1OC2(c3cc(I)c(O)c(I)c3Oc3c2cc(I)c(O)c3I)c2c(Cl)c(Cl)c(Cl)c(Cl)c21 [RB, Rose Bengal]
reduction in cell viability with ultrasound relative to the same treatment without ultrasound (MIA PaCa-2 cells): 11.1%

Nc1ccn([C@@H]2O[C@H](CO)[C@@H](O)C2(F)F)c(=O)n1 [gemcitabine]
tumour growth over original starting volume (BxPc-3 tumours): 125.1%
tumour volume relative to starting tumour volume (ectopic BxPC-3 tumours): at no point in the therapy did the tumour volume decrease below the starting tumour volume
tumour volume increase (ectopic BxPC-3 tumours; control group about 100%): 38%
increase in tumour volume at day 6 (ectopic BxPC-3 tumours; day 6): 20%

O=c1[nH]cc(F)c(=O)[nH]1 [Compound 5-FU, 5-fluorouracil]
tumour growth over original starting volume (BxPc-3 tumours): 123.3%
reduction in cell viability with ultrasound relative to the same treatment without ultrasound (MIA PaCa-2 cells): 5.9%

CC1(C)C(/C=C/C2=C(Cl)C(=C/C=C3/N(CCCCS(=O)(=O)O)c4ccc(I)cc4C3(C)C)/CCC2)=[N+](CCCCS(=O)(=O)O)c2ccc(I)cc21 [Compound I2-IRCYDYE, 2-((E)-2-((E)-2-chloro-3-((E)-2-(5-iodo-3,3-dimethyl-1-(4-sulfobutyl)indolin-2-ylidene)ethylidene)cyclohex-1-en-1-yl)vinyl)-5-iodo-3,3-dimethyl-1-(4-sulfobutyl)-3H-indol-1-ium]
fluorescence emission in comparison to cardio green [1]: remains similar to cardiogreen
singlet oxygen production [2]: more singlet oxygen than Cardio Green
cytotoxicity compared with cardio green (Mia Paca cells): significantly more cytotoxic
cytotoxicity compared with cardio green (BxPC-3 cells): significantly more cytotoxic
toxicity compared with Cardio Green [3]: more toxic
tumour localisation [4]: localises in tumor

CN1CCN(CCCNc2cc3c4c(c(NCCCN5CCN(C)CC5)cc5c4c2C(=O)N(CCCN2CCOCC2)C5=O)C(=O)N(CCCN2CCOCC2)C3=O)CC1 [MM41]
reduction of Bcl2 levels at the protein level (Bcl2): 40%

CC1(C)C(/C=C/C2=C(Cl)C(=C/C=C3/N(CCCCS(=O)(=O)O)c4cc(I)cc(I)c4C3(C)C)/CCC2)=[N+](CCCCS(=O)(=O)O)c2cc(I)cc(I)c21 [Compound I4-IRCYDYE, 2-((E)-2-((E)-2-chloro-3-((E)-2-(4,6-diiodo-3,3-dimethyl-1-(4-sulfobutyl)indolin-2-ylidene)ethylidene)cyclohex-1-en-1-yl)vinyl)-4,6-diiodo-3,3-dimethyl-1-(4-sulfobutyl)-3H-indol-1-ium]
fluorescence emission in comparison to cardio green [1]: considerably quenched
singlet oxygen production [2]: more singlet oxygen than Cardio Green
cytotoxicity compared with cardio green (Mia Paca cells): significantly more cytotoxic
cytotoxicity compared with cardio green (BxPC-3 cells): significantly more cytotoxic
toxicity compared with Cardio Green [3]: more toxic
